# Results: publication PMC7342775 (European journal of medicinal chemistry, 2020)
# Key:
# α1β3γ2 GABAAR [1] = conditions: cited from earlier work; for selectivity favoring the etomidate site / selectivity favoring the R-mTFD-MPAB sites: 4-substituted propofols
# α1β3γ2L GABAARs [2] = target: T1, α1β3γ2L GABAARs (Homo sapiens, UniProt P14867+P18507+P28472); assay: Modulation of [3H]muscimol binding, native HEK cell membranes
# α1β3γ2 GABAAR [3] = assay: Selectivity between etomidate and R-mTFD-MPAB sites; type: binding, human
# α1β3γ2L GABAARs [4] = target: T1, α1β3γ2L GABAARs; assay: Two-microelectrode voltage-clamp electrophysiology in Xenopus oocytes, wild type
# α1β3γ2L GABAARs [5] = target: T1, α1β3γ2L GABAARs; assay: [3H]pTFD-di-iPr-BnOH photolabeling and its inhibition; type: binding; conditions: with GABA; for inhibition of [3H]pTFD-di-iPr-BnOH photoincorporation into the β subunit: 300 μM etomidate, 30 μM allopregnanolone, fluorography
# α1β3 GABAARs = target: T2, α1β3 GABAARs (Homo sapiens, UniProt P14867+P28472); assay: Modulation of [3H]muscimol binding, α1β3 receptors
# T2 sequence (P14867 28-456): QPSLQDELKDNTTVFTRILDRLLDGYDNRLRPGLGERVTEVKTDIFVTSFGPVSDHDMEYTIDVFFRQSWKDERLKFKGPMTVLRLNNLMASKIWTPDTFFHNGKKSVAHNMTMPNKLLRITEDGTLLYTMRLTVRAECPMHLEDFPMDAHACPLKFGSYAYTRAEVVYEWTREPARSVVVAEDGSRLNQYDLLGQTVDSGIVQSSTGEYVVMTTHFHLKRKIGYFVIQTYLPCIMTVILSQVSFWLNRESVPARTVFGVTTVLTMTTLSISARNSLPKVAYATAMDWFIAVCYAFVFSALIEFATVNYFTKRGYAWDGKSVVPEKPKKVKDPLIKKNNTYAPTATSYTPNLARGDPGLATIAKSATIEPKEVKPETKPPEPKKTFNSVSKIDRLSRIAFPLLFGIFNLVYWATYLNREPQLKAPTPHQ
# T2 sequence (P28472 26-473): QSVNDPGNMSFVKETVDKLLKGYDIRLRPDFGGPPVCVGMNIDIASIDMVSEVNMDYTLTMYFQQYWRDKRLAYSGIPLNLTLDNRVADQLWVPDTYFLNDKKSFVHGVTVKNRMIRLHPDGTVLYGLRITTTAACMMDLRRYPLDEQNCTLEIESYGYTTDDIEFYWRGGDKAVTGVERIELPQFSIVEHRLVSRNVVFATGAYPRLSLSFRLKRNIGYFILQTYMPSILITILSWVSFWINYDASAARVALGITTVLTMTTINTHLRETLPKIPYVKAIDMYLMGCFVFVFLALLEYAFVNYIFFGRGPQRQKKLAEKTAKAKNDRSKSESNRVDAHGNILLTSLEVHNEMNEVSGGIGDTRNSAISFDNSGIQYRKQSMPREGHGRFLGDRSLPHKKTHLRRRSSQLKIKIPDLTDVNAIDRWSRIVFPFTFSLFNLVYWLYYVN
# α1β3γ2L GABAARs [6] = target: T1, α1β3γ2L GABAARs; assay: Inhibition of [3H]R-mTFD-MPAB photolabeling; type: binding
# α1(S270I)β3γ2L receptors = α1(S270I)β3γ2L receptors (Homo sapiens, UniProt P14867+P18507+P28472, S297I); assay: Oocyte electrophysiology, enhancement of low-GABA currents, α1 S270I mutant; type: cell-based; conditions: for enhancement of GABA currents compared to wild type: 5 μM etomidate, 8 μM R-mTFD-MPAB
# α1β3γ2L GABAARs [7] = target: T1, α1β3γ2L GABAARs; assay: Inhibition of [3H]azietomidate photolabeling; type: binding; conditions: in the presence of 300 μM etomidate
# Xenopus laevis tadpoles = assay: Loss of righting reflexes; type: in vivo
# Chain of α1(S270I)β3γ2L receptors (P14867 28-456 S297I, one chain of several): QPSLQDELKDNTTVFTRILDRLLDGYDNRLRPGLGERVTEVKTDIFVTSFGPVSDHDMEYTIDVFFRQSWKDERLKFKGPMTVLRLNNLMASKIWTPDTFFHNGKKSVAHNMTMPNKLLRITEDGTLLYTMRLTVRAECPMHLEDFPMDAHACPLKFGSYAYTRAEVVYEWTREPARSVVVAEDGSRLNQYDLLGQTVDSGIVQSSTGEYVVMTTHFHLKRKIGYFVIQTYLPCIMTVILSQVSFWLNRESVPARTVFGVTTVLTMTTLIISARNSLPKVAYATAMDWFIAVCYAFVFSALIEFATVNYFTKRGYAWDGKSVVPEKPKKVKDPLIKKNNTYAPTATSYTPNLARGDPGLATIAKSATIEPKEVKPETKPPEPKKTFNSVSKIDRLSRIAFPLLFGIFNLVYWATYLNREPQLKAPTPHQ
# Chain of α1(S270I)β3γ2L receptors (P18507 40-475, one chain of several): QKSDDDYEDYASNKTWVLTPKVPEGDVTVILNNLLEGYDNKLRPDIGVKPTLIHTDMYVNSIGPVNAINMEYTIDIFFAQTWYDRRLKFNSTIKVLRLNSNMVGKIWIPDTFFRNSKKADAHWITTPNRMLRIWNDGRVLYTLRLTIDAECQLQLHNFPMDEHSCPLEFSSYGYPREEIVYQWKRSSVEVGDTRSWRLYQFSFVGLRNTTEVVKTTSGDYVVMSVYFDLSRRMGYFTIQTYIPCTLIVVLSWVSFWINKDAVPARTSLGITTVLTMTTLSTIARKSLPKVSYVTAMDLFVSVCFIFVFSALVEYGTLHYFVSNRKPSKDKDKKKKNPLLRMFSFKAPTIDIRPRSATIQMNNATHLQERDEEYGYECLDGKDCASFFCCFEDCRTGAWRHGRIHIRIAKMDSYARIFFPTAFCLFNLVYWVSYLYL
# T1 sequence (P18507 40-475, one chain of several): as above
compound,measurement,setting,value
CC(C)c1cc(Cl)cc(C(C)C)c1O [4-Cl-propofol],selectivity favoring the etomidate site,α1β3γ2 GABAAR [1],4 fold
CC(C)c1cc(C(=O)c2ccccc2)cc(C(C)C)c1O [4-benzoylpropofol],high affinity R-mTFD-MPAB site favored over the etomidate site,α1β3γ2 GABAAR [1],200 fold
same,low affinity R-mTFD-MPAB site favored over the etomidate sites,α1β3γ2 GABAAR [1],3 fold
"OCc1ccccc1 [BnOH, benzyl alcohol]",LoRR at lower concentrations than modulation of [3H]muscimol binding,α1β3γ2L GABAARs [2]; tadpole LoRR vs HEK cell membranes,~20 times
same,modulation of [3H]muscimol binding,α1β3γ2L GABAARs [2]; up to 50 mM,no modulation
"CC(C)c1cccc(C(C)C)c1CO [Di-iPr-BnOH, (2,6-diisopropylphenyl)methanol]",selectivity favoring the etomidate site over R-mTFD-MPAB site,α1β3γ2 GABAAR [3],2–3 fold
"NCCCC(=O)O [GABA, γ-aminobutyric acid]",elicited currents,α1β3γ2L GABAARs [4]; 1 mM GABA,3.2 ± 1.5 μA
same,Hill coefficient nH of GABA concentration-response curve,α1β3γ2L GABAARs [4]; GABA alone,1.0 ± 0.1
CC(=O)c1cc(C(C)C)c(O)c(C(C)C)c1 [Me–CO–],selectivity favoring the R-mTFD-MPAB sites,α1β3γ2 GABAAR [1],1.5 fold
CC(C)c1cc(C(O)c2ccccc2)cc(C(C)C)c1O (centres unmarked) [Ph–C(OH)–],selectivity favoring the R-mTFD-MPAB sites,α1β3γ2 GABAAR [1],5.3 fold
CC(C)c1cccc(C(C)C)c1O [Propofol],extent of inhibition of [3H]pTFD-di-iPr-BnOH photolabeling,"α1β3γ2L GABAARs [5]; 300 μM, β subunit",to the same extent as the background labeling
same,selectivity favoring the etomidate site,α1β3γ2 GABAAR [1],5.5 fold
same,EC50,α1β3 GABAARs,7 ± 1.7 µM
"C=CCC1(c2cccc(C3(C(F)(F)F)N=N3)c2)C(=O)NC(=O)N(C)C1=O (centres unmarked) [R–mTFD-MPAB, (5-allyl-1-methyl-5-(3-(3-(trifluoromethyl)-3H-diazirin-3-yl)phenyl)pyrimidine-2,4,6(1H,3H,5H)-trione)]",non-specific [3H]R-mTFD-MPAB photolabeling (Bns),α1β3γ2L GABAARs [6]; in the presence of 60 μM R-mTFD-MPAB,13 ± 4%
same,enhancement of GABA currents compared to wild type,α1(S270I)β3γ2L receptors,significantly reduced
CC(=O)[C@H]1CC[C@H]2[C@@H]3CC[C@H]4C[C@H](O)CC[C@]4(C)[C@H]3CC[C@]12C [allopregnanolone],inhibition of [3H]pTFD-di-iPr-BnOH photoincorporation into the β subunit,α1β3γ2L GABAARs [5],little inhibition of photolabeling
CCOC(=O)c1cncn1[C@H](C)c1ccccc1 [etomidate],inhibition of [3H]pTFD-di-iPr-BnOH photoincorporation into the β subunit,α1β3γ2L GABAARs [5],little inhibition of photolabeling
same,enhancement of GABA currents compared to wild type,α1(S270I)β3γ2L receptors,comparable to that in wild-type
same,non-specific [3H]azietomidate photolabeling (Bns),α1β3γ2L GABAARs [7],13 ± 3%
"CC(C)c1cc(C2(C(F)(F)F)N=N2)cc(C(C)C)c1CO [pTFD-di-iPr-BnOH, (2,6-diisopropyl-4-(3-(trifluoromethyl)-3H-diazirin-3-yl)phenyl)methanol]",fraction of tadpoles that did not recover from anesthesia,Xenopus laevis tadpoles; at 2 μM,4/7
same,fraction of tadpoles that did not recover from anesthesia,Xenopus laevis tadpoles; at 3 μM,6/9
same,fraction of tadpoles that did not recover from anesthesia,Xenopus laevis tadpoles; at 10 μM,7/10
same,increase in LoRR potency,Xenopus laevis tadpoles; relative to Di-iPr-BnOH,6 fold
same,IC50,α1β3γ2L GABAARs [6],73 ± 10 µM
same,reduction of enhancement compared to wild type,α1(S270I)β3γ2L receptors; 10 μM pTFD-di-iPr-BnOH,more than 50%
CC(C)c1cc(C(C)(C)C)cc(C(C)C)c1O [t-Bu–],selectivity favoring the R-mTFD-MPAB sites,α1β3γ2 GABAAR [1],8 fold
